From patent publication US20230399314A1, “CD73 INHIBITOR AND USE THEREOF” (WUHAN HUMANWELL INNOVATIVE DRUG RESEARCH AND DEVELOPMENT …, priority 2020, published 2023)

Target: Human-CD73 enzyme (Homo sapiens (Human), UniProt P21589)
Assay: In vitro inhibitory activity to recombinant human CD73 enzyme (ATP-GLO)
Assay type: biochemical
Conditions: Human-CD73 0.1 μg/mL, AMP 100 μM
Procedure: Human-CD73 (Novoprotein; C446) was diluted with Tris-MgCl2 buffer to form a stock solution (3×), which was placed in a 96-well plate according to 20 μL/well to obtain a final concentration of 0.1 μg/mL. The compound was diluted with Tris-MgCl2 buffer to form a stock solution (3×) of an appropriate concentration gradient, the compound solution was added to the above 96-well plate according to 20 μL/well and uniformly mixed with the Human-CD73 solution, and the mixture was incubated at the room temperature for 30 min. Meanwhile, a positive reference group (without the compound) and a negative reference group (without CD73) were set. AMP (Sigma; A1752-5G) was diluted with Tris-MgCl2 buffer to form a stock solution (3×), which was added to the above 96-well plate according to 20 μL/well to obtain a final concentration of 100 μM, and the mixture was uniformly mixed and incubated at 37° C. for 60 min; ATP (Sigma; A7699-1G) was diluted with Tris-MgCl2 buffer to form a stock solution (7×), which was added to the above 96-well plate according to 10 μL/well to obtain a final concentration of 100 μM, and the mixture was uniformly mixed, incubated for 5 min, and tested by using an ATP-GLO kit (Promega; G7573).
Human-CD73 inhibition rates of the compound at different concentrations were calculated according to the following formula, the concentration of the compound was taken as the X-axis, the inhibition rate was taken as the Y-axis, and an IC50 value of the compound in inhibiting Human-CD73 was calculated by using Prism software.

Sequence of Human-CD73 enzyme (P21589 27-574): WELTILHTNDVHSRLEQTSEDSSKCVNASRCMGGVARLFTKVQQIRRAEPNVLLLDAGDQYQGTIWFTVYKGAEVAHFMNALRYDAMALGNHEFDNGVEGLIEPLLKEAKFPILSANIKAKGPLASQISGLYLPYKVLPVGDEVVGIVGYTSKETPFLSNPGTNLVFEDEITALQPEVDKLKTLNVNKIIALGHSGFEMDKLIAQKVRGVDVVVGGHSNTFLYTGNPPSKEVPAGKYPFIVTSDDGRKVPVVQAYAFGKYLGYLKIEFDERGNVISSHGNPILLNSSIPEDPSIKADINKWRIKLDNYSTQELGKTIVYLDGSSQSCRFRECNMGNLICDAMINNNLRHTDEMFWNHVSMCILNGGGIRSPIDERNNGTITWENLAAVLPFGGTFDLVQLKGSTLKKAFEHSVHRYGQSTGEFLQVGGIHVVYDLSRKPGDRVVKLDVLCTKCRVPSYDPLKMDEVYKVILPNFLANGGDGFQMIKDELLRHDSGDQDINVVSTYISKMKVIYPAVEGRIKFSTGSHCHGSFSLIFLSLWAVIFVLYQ

## CC(C)(O)[C@H]1C[C@@H]1c1cc(-c2c[nH]c(=O)[nH]c2=O)nnc1Cl [Compound 5, 5-(6-chloro-5-((1S,2S)-2-(2-hydroxypropan-2-yl)cyclopropyl)pyridazin-3-yl)pyrimidine-2,4(1H,3H)-dione]
  IC50: 0.0116 µM

## CC(O)[C@H]1C[C@@H]1c1cc(-c2c[nH]c(=O)[nH]c2=O)nnc1Cl (stereo partly drawn) [Compound 6, 5-(6-chloro-5-((1S,2S)-2-(1-hydroxyethyl)cyclopropyl)pyridazin-3-yl)pyrimidine-2,4(1H,3H)-dione]
  IC50: 0.0245 µM

## O=c1[nH]cc(-c2cc([C@@H]3C[C@H]3CF)c(Cl)nn2)c(=O)[nH]1 [Compound 8, 5-(6-chloro-5-((1R,2R)-2-(fluoromethyl)cyclopropyl)pyridazin-3-yl)pyrimidine-2,4(1H,3H)-dione]
  IC50: 0.0165 µM

## COC[C@H]1C[C@@H]1c1cc(-c2c[nH]c(=O)[nH]c2=O)nnc1Cl [Compound 12, 5-(6-chloro-5-((1S,2S)-2-(methoxymethyl)cyclopropyl)pyridazin-3-yl)pyrimidine-2,4(1H,3H)-dione]
  IC50: 0.0154 µM

## O=c1[nH]cc(-c2cc([C@@H]3C[C@H]3CC(F)(F)F)c(Cl)nn2)c(=O)[nH]1 [Compound 13, 5-(6-chloro-5-((1R,2S)-2-(2,2,2-trifluoroethyl)cyclopropyl)pyridazin-3-yl)pyrimidine-2,4(1H,3H)-dione]
  IC50: 6.87 µM

## N#Cc1nnc(-c2c[nH]c(=O)[nH]c2=O)cc1[C@H]1C[C@@H]1C(F)(F)F [Compound 15, 6-(2,4-dioxo-1H-pyrimidin-5-yl)-4-((1S,2S)-2-(trifluoromethyl)cyclopropyl)pyridazine-3-carbonitrile]
  IC50: 0.123 µM

## CCOC[C@H]1C[C@@H]1c1cc(-c2c[nH]c(=O)[nH]c2=O)nnc1Cl [Compound 16, 5-(6-chloro-5-((1S,2S)-2-(ethoxymethyl)cyclopropyl)pyridazin-3-yl)-1H-pyrimidine-2,4-dione]
  IC50: 0.173 µM

## CC(C)OC[C@H]1C[C@@H]1c1cc(-c2c[nH]c(=O)[nH]c2=O)nnc1Cl [Compound 17, 5-(6-chloro-5-((1S,2S)-2-(isopropoxymethyl)cyclopropyl)pyridazin-3-yl)-1H-pyrimidine-2,4-dione]
  IC50: 0.164 µM

## O=c1[nH]cc(-c2cc([C@@H]3C[C@H]3CC(F)F)c(Cl)nn2)c(=O)[nH]1 [Compound 19, 5-(6-chloro-5-((1R,2S)-2-(2,2-difluoroethyl)cyclopropyl)pyridazin-3-yl)pyrimidine-2,4(1H,3H)-dione]
  IC50: 1.25 µM

## Cc1nnc(-c2c[nH]c(=O)[nH]c2=O)cc1[C@H]1C[C@@H]1CF [Compound 20, 5-(5-((1S,2S)-2-(fluoromethyl)cyclopropyl)-6-methylpyridazin-3-yl)pyrimidine-2,4(1H,3H)-dione]
  IC50: 0.00955 µM
